From ChEMBL document CHEMBL3045188, “Synthesis and antibacterial, antimycobacterial and docking studies of novel N-piperazinyl fluoroquinolones” (Med Chem Res, 2013) come the findings set out here.

≈ marks a conversion by molar mass, not a printed value. Calls of active or inactive are those of the source. No cut-off for these calls is given here.

The subject of one data set is Escherichia coli. The data set is described as follows: Antibacterial activity against Escherichia coli MTCC 1089 assessed as growth inhibition after 18 hr by broth microdilution method. Format: functional. As to conditions: MTCC 1089, 18 h.
The next data set relates to Vero. As to the kind of experiment: Cytotoxicity against Chlorocebus aethiops (African green monkey) Vero cells assessed as inhibition of cell viability after 96 hr by MTT assay. It counts as cell-based. As to conditions: Chlorocebus sabaeus. (In general: Tetrazolium assays rely on reduction of a dye to a coloured formazan, in cell work by metabolically active cells.)

The test system of a further data set is Corynebacterium. The data set is described as follows: Antibacterial activity against Corynebacterium ATCC 29355 assessed as growth inhibition after 18 hr by broth microdilution method. As to conditions: ATCC 29355, 18 h. It counts as functional.
Another data set has as its system Pseudomonas aeruginosa. The data set is described as follows: Antibacterial activity against Pseudomonas aeruginosa ATCC 25619 assessed as growth inhibition after 18 hr by broth microdilution method. As to conditions: ATCC 25619, 18 h. It counts as functional.
Data set [1] is described as follows: Selectivity index, ratio of IC50 for african green monkey Vero cells to MIC for Mycobacterium tuberculosis H37Rv. Format: toxicity, cell-based. The following applies: read-out: Selectivity Index.
Another data set relates to Staphylococcus aureus. The data set is described as follows: Antibacterial activity against Staphylococcus aureus ATCC 25365 assessed as growth inhibition after 18 hr by broth microdilution method. Format: functional. As to conditions: ATCC 25365, 18 h. (In general: Dilution methods test growth across graded concentrations, often in twofold steps.)
The test system of data set [2] is Mycobacterium tuberculosis. As to the kind of experiment: Antimycobacterial activity against Mycobacterium tuberculosis H37Rv assessed as growth inhibition after 21 days by broth dilution assay. Format: functional.

Turning to `CCn1cc(C(=O)O)c(=O)c2cc(F)c(N3CCN(c4nnc(SCC(=O)c5ccc(Cl)cc5)s4)CC3)cc21`, the MIC is 32 µg/mL (≈ 54.4 µM) in the data set on Escherichia coli; 2 µg/mL (≈ 3.4 µM) with Corynebacterium; above 64 µg/mL in the data set on Pseudomonas aeruginosa; 4 µg/mL (≈ 6.8 µM) in the data set on Staphylococcus aureus; 1.5 µg/mL (≈ 2.55 µM) in data set [2] (504 h). In addition, in the data set on Vero, the IC50 is 4 µg/mL (≈ 6.8 µM). In data set [1], the selectivity ratio amounted to 2.67.

As for `O=C(CSc1nnc(N2CCN(c3cc4c(cc3F)c(=O)c(C(=O)O)cn4C3CC3)CC2)s1)c1ccc(Cl)cc1`, the MIC is 16 µg/mL (≈ 26.7 µM) with Escherichia coli; 2 µg/mL (≈ 3.33 µM) in the data set with Corynebacterium; above 64 µg/mL with Pseudomonas aeruginosa; 4 µg/mL (≈ 6.67 µM) with Staphylococcus aureus; 1 µg/mL (≈ 1.67 µM) in data set [2] (504 h). Besides, in the data set with Vero, the IC50 was 3 µg/mL (≈ 5 µM). Further, the selectivity ratio in data set [1] is 3.

`CCn1cc(C(=O)O)c(=O)c2cc(F)c(N3CCN(c4nnc(SCC(=O)c5ccc([N+](=O)[O-])cc5)s4)CC3)cc21`: the MIC with Escherichia coli was 16 µg/mL (≈ 26.7 µM); in the data set on Corynebacterium it was 1 µg/mL (≈ 1.67 µM); in the data set on Pseudomonas aeruginosa, above 64 µg/mL; in the data set on Staphylococcus aureus, 2 µg/mL (≈ 3.34 µM); in data set [2] (504 h), 1 µg/mL (≈ 1.67 µM). Further, the IC50 in the data set on Vero was above 10.2 µg/mL. Moreover, in data set [1], the selectivity ratio is above 10.2.

Regarding `O=C(CSc1nnc(N2CCN(c3cc4c(cc3F)c(=O)c(C(=O)O)cn4C3CC3)CC2)s1)c1ccc(Br)cc1`, the MIC was 16 µg/mL (≈ 24.8 µM) in the data set with Escherichia coli; 4 µg/mL (≈ 6.21 µM) with Corynebacterium; above 64 µg/mL with Pseudomonas aeruginosa; 8 µg/mL (≈ 12.4 µM) in the data set with Staphylococcus aureus; 2 µg/mL (≈ 3.1 µM) in data set [2] (504 h). In addition, the half-inhibitory concentration (IC50) in the data set on Vero amounted to 6 µg/mL (≈ 9.31 µM). The selectivity ratio in data set [1] was 3.

As for `CO[C@H]1/C=C/O[C@@]2(C)Oc3c(C)c(O)c4c(O)c(c(/C=N/N5CCN(C)CC5)c(O)c4c3C2=O)NC(=O)/C(C)=C\C=C\[C@H](C)[C@H](O)[C@@H](C)[C@@H](O)[C@@H](C)[C@H](OC(C)=O)[C@@H]1C` [RIFAMPIN], the IC50 in the data set with Vero is above 10 µg/mL. Also, in data set [1], the selectivity ratio was above 10. In data set [2] (504 h), the MIC came out at 1 µg/mL (≈ 1.22 µM).

Take `NNC(=O)c1ccncc1` [ISONIAZID]: the IC50 with Vero was above 12 µg/mL. Besides, the MIC in data set [2] (504 h) turned out to be 1.5 µg/mL (≈ 10.9 µM).

For `O=C(CSc1nnc(N2CCN(c3cc4c(cc3F)c(=O)c(C(=O)O)cn4C3CC3)CC2)s1)c1ccc(F)cc1`, the MIC in the data set with Escherichia coli was 16 µg/mL (≈ 27.4 µM); with Corynebacterium, 4 µg/mL (≈ 6.85 µM); in the data set on Pseudomonas aeruginosa, 32 µg/mL (≈ 54.8 µM); in the data set on Staphylococcus aureus, 8 µg/mL (≈ 13.7 µM); in data set [2] (504 h) it was 5 µg/mL (≈ 8.57 µM).

For the compound `COc1ccc(C(=O)CSc2nnc(N3CCN(c4cc5c(cc4F)c(=O)c(C(=O)O)cn5C4CC4)CC3)s2)cc1`, the MIC was 32 µg/mL (≈ 53.7 µM) with Escherichia coli; 1 µg/mL (≈ 1.68 µM) with Corynebacterium; above 64 µg/mL with Pseudomonas aeruginosa; 2 µg/mL (≈ 3.36 µM) in the data set on Staphylococcus aureus; 10 µg/mL (≈ 16.8 µM) in data set [2] (504 h).

Take `O=C(CSc1nnc(N2CCN(c3cc4c(cc3F)c(=O)c(C(=O)O)cn4C3CC3)CC2)s1)c1ccccc1`: the MIC in the data set with Escherichia coli was 32 µg/mL (≈ 56.6 µM); in the data set with Corynebacterium, 16 µg/mL (≈ 28.3 µM); with Pseudomonas aeruginosa it was above 64 µg/mL; with Staphylococcus aureus, 16 µg/mL (≈ 28.3 µM). In addition, the MIC entry in data set [2] was “inactive”.

With `CCn1cc(C(=O)O)c(=O)c2cc(F)c(N3CCN(c4nnc(SCC(=O)c5ccc(Br)cc5)s4)CC3)cc21`, the MIC is 32 µg/mL (≈ 50.6 µM) in the data set on Escherichia coli; 4 µg/mL (≈ 6.32 µM) with Corynebacterium; above 64 µg/mL with Pseudomonas aeruginosa; 8 µg/mL (≈ 12.6 µM) in the data set on Staphylococcus aureus; 2.5 µg/mL (≈ 3.95 µM) in data set [2] (504 h). In addition, the IC50 in the data set with Vero came out at 5 µg/mL (≈ 7.9 µM). The selectivity ratio in data set [1] stood at 2.

For `CCn1cc(C(=O)O)c(=O)c2cc(F)c(N3CCN(c4nnc(SCC(=O)c5ccc(OC)cc5)s4)CC3)cc21`, the MIC in the data set on Escherichia coli is above 64 µg/mL; in the data set on Corynebacterium, 1 µg/mL (≈ 1.71 µM); with Pseudomonas aeruginosa it was above 64 µg/mL; with Staphylococcus aureus it was 2 µg/mL (≈ 3.43 µM); in data set [2] (504 h) it was 10 µg/mL (≈ 17.1 µM).

On to `CCn1cc(C(=O)O)c(=O)c2cc(F)c(N3CCN(c4nnc(SCC(=O)c5ccc(C)cc5)s4)CC3)cc21`, for which the MIC was above 64 µg/mL with Escherichia coli, 4 µg/mL (≈ 7.05 µM) in the data set on Corynebacterium, above 64 µg/mL with Pseudomonas aeruginosa and 8 µg/mL (≈ 14.1 µM) in the data set on Staphylococcus aureus. Also, in data set [2], the MIC result was “inactive”.

Turning to `O=C(O)c1cn(C2CC2)c2cc(N3CCNCC3)c(F)cc2c1=O` [CIPROFLOXACIN], the MIC with Pseudomonas aeruginosa was determined as 4 µg/mL (≈ 12.1 µM); with Staphylococcus aureus it was 2 µg/mL (≈ 6.04 µM).

As for `Cc1ccc(C(=O)CSc2nnc(N3CCN(c4cc5c(cc4F)c(=O)c(C(=O)O)cn5C4CC4)CC3)s2)cc1`, the MIC is 16 µg/mL (≈ 27.6 µM) with Escherichia coli, 4 µg/mL (≈ 6.9 µM) with Corynebacterium, above 64 µg/mL with Pseudomonas aeruginosa and 8 µg/mL (≈ 13.8 µM) in the data set on Staphylococcus aureus. Further, the MIC result in data set [2] was “inactive”.

With `CCn1cc(C(=O)O)c(=O)c2cc(F)c(N3CCNCC3)cc21` [NORFLOXACIN], the minimum inhibitory concentration (MIC) in the data set with Escherichia coli was 2 µg/mL (≈ 6.26 µM); in the data set with Corynebacterium, 2 µg/mL (≈ 6.26 µM); with Pseudomonas aeruginosa, 4 µg/mL (≈ 12.5 µM); in the data set on Staphylococcus aureus it was 2 µg/mL (≈ 6.26 µM).

Turning to `CCn1cc(C(=O)O)c(=O)c2cc(F)c(N3CCN(c4nnc(SCC(=O)c5ccccc5)s4)CC3)cc21`, the MIC is above 64 µg/mL in the data set on Escherichia coli, 16 µg/mL (≈ 28.9 µM) in the data set on Corynebacterium, above 64 µg/mL with Pseudomonas aeruginosa and 32 µg/mL (≈ 57.8 µM) in the data set on Staphylococcus aureus. Also, the MIC result in data set [2] is “inactive”.

In the case of `CCn1cc(C(=O)O)c(=O)c2cc(F)c(N3CCN(c4nnc(SCC(=O)c5ccc(F)cc5)s4)CC3)cc21`, the MIC was above 64 µg/mL in the data set on Escherichia coli; 2 µg/mL (≈ 3.5 µM) with Corynebacterium; 32 µg/mL (≈ 56 µM) in the data set on Pseudomonas aeruginosa; 4 µg/mL (≈ 7 µM) in the data set with Staphylococcus aureus; 5 µg/mL (≈ 8.75 µM) in data set [2] (504 h).

For the compound `O=C(CSc1nnc(N2CCN(c3cc4c(cc3F)c(=O)c(C(=O)O)cn4C3CC3)CC2)s1)c1ccc([N+](=O)[O-])cc1`, the MIC with Escherichia coli was 32 µg/mL (≈ 52.4 µM); in the data set on Corynebacterium it was 0.5 µg/mL (≈ 0.819 µM); in the data set on Pseudomonas aeruginosa, above 64 µg/mL; in the data set with Staphylococcus aureus, 1 µg/mL (≈ 1.64 µM); in data set [2] (504 h), 0.5 µg/mL (≈ 0.819 µM). Besides, the IC50 in the data set on Vero was above 6.1 µg/mL. Moreover, the selectivity ratio in data set [1] is above 12.2.

A word on the MIC: it is the lowest concentration that inhibits growth of the organism. The IC50 is the concentration that gives 50% inhibition.
